Tested on: 616215-338-R-J1-PDC tumor spheroids, viability
Experiment: Anticancer human tumor 616215-338-R-J1-PDC patient-derived colon adenocarcinoma cell line growth inhibition [GQUAD]
Details: spheroids with HUVEC and MSC; for IC50: curve of first compound; for viability, T/C: stronger effect = lower value; active = viability on the fitted dose curve at most 10% of control; inactive = the rest
Method in brief: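 Viability of tumor cells grown as complex spheroids with endothelial and stromal cells, exposed to drug combinations. Top concentration at or near clinical Cmax (else 10 microM), diluted in half-log increments.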

[1] = second compound 0.0316 µM, first compound 0.0316 µM
[2] = second compound 0.0316 µM, first compound 0.1 µM
[3] = second compound 0.0316 µM, first compound 0.316 µM
[4] = second compound 0.0316 µM, first compound 1 µM
[5] = second compound 0.0316 µM, first compound 3.16 µM
[6] = second compound 0.0316 µM, first compound 10 µM
[7] = second compound 0.1 µM, first compound 0.0316 µM
[8] = second compound 0.1 µM, first compound 0.1 µM
[9] = second compound 0.1 µM, first compound 0.316 µM
[10] = second compound 0.1 µM, first compound 1 µM
[11] = second compound 0.1 µM, first compound 3.16 µM
[12] = second compound 0.1 µM, first compound 10 µM
[13] = second compound 0.316 µM, first compound 0.0316 µM
[14] = second compound 0.316 µM, first compound 0.1 µM
[15] = second compound 0.316 µM, first compound 0.316 µM
[16] = second compound 0.316 µM, first compound 1 µM
[17] = second compound 0.316 µM, first compound 3.16 µM
[18] = second compound 0.316 µM, first compound 10 µM
[19] = second compound 1 µM, first compound 0.0316 µM
[20] = second compound 1 µM, first compound 0.1 µM
[21] = second compound 1 µM, first compound 0.316 µM
[22] = second compound 1 µM, first compound 1 µM
[23] = second compound 1 µM, first compound 3.16 µM
[24] = second compound 1 µM, first compound 10 µM
[25] = second compound 3.16 µM, first compound 0.0316 µM
[26] = second compound 3.16 µM, first compound 0.1 µM
[27] = second compound 3.16 µM, first compound 0.316 µM
[28] = second compound 3.16 µM, first compound 1 µM
[29] = second compound 3.16 µM, first compound 3.16 µM
[30] = second compound 3.16 µM, first compound 10 µM
[31] = second compound 10 µM, first compound 0.0316 µM
[32] = second compound 10 µM, first compound 0.1 µM
[33] = second compound 10 µM, first compound 0.316 µM
[34] = second compound 10 µM, first compound 1 µM
[35] = second compound 10 µM, first compound 3.16 µM
[36] = second compound 10 µM, first compound 10 µM
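Note: spheroids exposed to agents for 7 days before readout.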
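Throughout, for viability, T/C: percent viability relative to DMSO vehicle control wells taken as 100%.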

CC(C)(O)C1CCC(Nc2ccc3ncc(-c4cccc(C(F)(F)F)c4)n3n2)CC1 (centres undefined) + CN(C)c1ccc(Nc2c3ccc(NC(=O)CCN4CCCC4)cc3nc3cc(NC(=O)CCN4CCCC4)ccc23)cc1
0.634 µM: IC50 (second compound 0.0316 µM)
0.64 µM: IC50 (second compound 0.316 µM)
0.585 µM: IC50 (second compound 3.16 µM)
0.447 µM: IC50 (second compound 10 µM)
active: viability, T/C [5] 0.97% | viability, T/C [6] 1.74% | viability, T/C [11] 1.16% | viability, T/C [12] 1.76% | viability, T/C [17] 1.32% | viability, T/C [18] 2.9% | viability, T/C [23] 2.03% | viability, T/C [24] 3.51% | viability, T/C [29] 3.83% | viability, T/C [30] 1.76% | viability, T/C [35] 0.42% | viability, T/C [36] 0.5%
0.711 µM: IC50 (second compound 1 µM)
0.726 µM: IC50 (second compound 0.1 µM)
inactive: viability, T/C [1] 111% | viability, T/C [2] 106% | viability, T/C [3] 101% | viability, T/C [4] 17% | viability, T/C [7] 96.3% | viability, T/C [8] 104% | viability, T/C [9] 94.7% | viability, T/C [10] 32.7% | viability, T/C [13] 106% | viability, T/C [14] 101% | viability, T/C [15] 91.2% | viability, T/C [16] 24.1% | viability, T/C [19] 93.6% | viability, T/C [20] 102% | viability, T/C [21] 103% | viability, T/C [22] 29.2% | viability, T/C [25] 93.1% | viability, T/C [26] 92.8% | viability, T/C [27] 86.3% | viability, T/C [28] 18.4% | viability, T/C [31] 89.9% | viability, T/C [32] 97.8% | viability, T/C [33] 63.8% | viability, T/C [34] 15.6%

Cc1cccc(N(C)C(=O)C2C(O)CCN2c2nc(C)cc(C(F)(F)F)c2C#N)c1 (centres undefined) + CN(C)c1ccc(Nc2c3ccc(NC(=O)CCN4CCCC4)cc3nc3cc(NC(=O)CCN4CCCC4)ccc23)cc1
> 10 µM: IC50 (second compound 0.0316 µM) | IC50 (second compound 0.1 µM) | IC50 (second compound 0.316 µM) | IC50 (second compound 1 µM) | IC50 (second compound 3.16 µM)
inactive: viability, T/C [1] 111% | viability, T/C [2] 97.9% | viability, T/C [3] 103% | viability, T/C [4] 103% | viability, T/C [5] 105% | viability, T/C [6] 109% | viability, T/C [7] 102% | viability, T/C [8] 101% | viability, T/C [9] 108% | viability, T/C [10] 101% | viability, T/C [11] 104% | viability, T/C [12] 96.2% | viability, T/C [13] 104% | viability, T/C [14] 99.5% | viability, T/C [15] 104% | viability, T/C [16] 107% | viability, T/C [17] 114% | viability, T/C [18] 110% | viability, T/C [19] 100% | viability, T/C [20] 99.1% | viability, T/C [21] 106% | viability, T/C [22] 97.8% | viability, T/C [23] 102% | viability, T/C [24] 98.7% | viability, T/C [25] 98.6% | viability, T/C [26] 93.1% | viability, T/C [27] 103% | viability, T/C [28] 102% | viability, T/C [29] 88.2% | viability, T/C [30] 88.9% | viability, T/C [31] 102% | viability, T/C [32] 78.2% | viability, T/C [33] 80.2% | viability, T/C [34] 63.5% | viability, T/C [35] 49% | viability, T/C [36] 36.6%
3.12 µM: IC50 (second compound 10 µM)
